The target in one assay is PARP7 enzyme (Homo sapiens (Human), UniProt Q7Z3E1). Briefly: PARP7 enzymatic experiment (HTRF assay). The class given is biochemical. As to conditions: 4PL fit.
In assay [1] the test system is lung cancer cell line H1373 (high expression of PARP7). Briefly: Lung cancer cell proliferation inhibition experiment (CTG method). It is filed as cell-based. The note with it: H1373 cells, 144 hrs incubation, Cell Titer Glo.

PARP7 enzyme, sequence (Q7Z3E1 456-657): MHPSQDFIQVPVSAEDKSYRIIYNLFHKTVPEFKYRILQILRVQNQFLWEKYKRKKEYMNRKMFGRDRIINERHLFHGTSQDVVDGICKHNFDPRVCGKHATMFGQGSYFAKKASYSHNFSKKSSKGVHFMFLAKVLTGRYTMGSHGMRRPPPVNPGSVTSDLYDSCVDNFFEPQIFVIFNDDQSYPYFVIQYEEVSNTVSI

For orientation: IC50 means the midpoint of a concentration-inhibition curve. High values mean lower potency, low ones higher potency. Take `CC[C@@H](COCCC(=O)N1CCN2c3ncc(C(F)(F)F)cc3N(C)C(=O)[C@@H]2C1)Nc1cn[nH]c(=O)c1C(F)(F)F` [Compound 15A]: the IC50 was determined as 0.00193 µM on PARP7 enzyme and 0.0824 µM in assay [1] (Homo sapiens, NCI-H1373, 144 h).
For the compound `C[C@@H](COCCC(=O)N1CCN2c3ncc(C(F)(F)F)cc3C(F)(F)C[C@H]2C1)Nc1cn[nH]c(=O)c1C(F)(F)F` (single isomer, unassigned) [Compound 77B], the IC50 on PARP7 enzyme came out at 0.004 µM; in assay [1], 0.334 µM.
On to `Cc1c2n(c3ncc(C(F)(F)F)cc13)CCN(C(=O)CCOC[C@@H]1CCN1c1cn[nH]c(=O)c1C(F)(F)F)C2` [Compound 92], for which the IC50 against PARP7 enzyme worked out at 0.000686 µM; in assay [1] (Homo sapiens, NCI-H1373, 144 h), 0.00802 µM.
As to `Cc1c(Cl)cnc2c1OCC[C@H]1CN(C(=O)CCOC[C@H](C)Oc3cn[nH]c(=O)c3C(F)(F)F)CCN21` [Compound 85B], the IC50 against PARP7 enzyme stood at 0.00784 µM; in assay [1] (Homo sapiens, NCI-H1373, 144 h), 0.311 µM.
In the same order, the values of `C[C@@H](COC[C@@H](O)C(=O)N1CCN2c3ncc(Cl)cc3OCCC2C1)Nc1cn[nH]c(=O)c1C(F)(F)F` (stereo partly drawn) [Compound 64A] are 0.0015 µM and 0.208 µM.
Take `C[C@@H](COCCC(=O)N1CCN2c3ncc(F)cc3N(C3CC3)C(=O)[C@@H]2C1)Nc1cn[nH]c(=O)c1C(F)(F)F` [Compound 28B]: the values for the IC50 (at PARP7 enzyme; in assay [1]) were 0.00787 µM and 0.761 µM, respectively.
As to `C[C@@H](COCCC(=O)N1CCN2c3ncc(F)cc3N(C)C(=O)[C@@H]2C1)Nc1cn[nH]c(=O)c1C(F)(F)F` (single isomer, unassigned) [Compound 19A], the IC50 worked out at 0.0017 µM on PARP7 enzyme and 0.269 µM in assay [1] (Homo sapiens, NCI-H1373, 144 h).
The like results for `CCN1C(=O)[C@H]2CN(C(=O)CCOC[C@H](C)Nc3cn[nH]c(=O)c3C(F)(F)F)CCN2c2ncc(Cl)cc21` [Compound 22B] were, in that order, 0.000969 µM and 0.0641 µM.
The like results for `CC(=O)c1c(N[C@@H](C)COCCC(=O)N2CCN3c4ncc(C(F)(F)F)cc4N(C)C(=O)[C@H]3C2)cn[nH]c1=O` [Compound 13B] were, in that order, 0.00173 µM and 0.0522 µM.
In the same order, the values of `CCN1C(=O)[C@@H]2CN(C(=O)CCOC[C@H](C)Nc3cn[nH]c(=O)c3C(F)(F)F)CCN2c2ncc(Br)cc21` (single isomer, unassigned) [Compound 23A] are 0.000804 µM and 0.117 µM.
Turning to `CCN1C(=O)[C@H]2CN(C(=O)CCOC[C@H](C)Nc3cn[nH]c(=O)c3C(F)(F)F)CCN2c2ncc(Br)cc21` [Compound 23B], the IC50 was found to be 0.000863 µM against PARP7 enzyme and 0.0461 µM in assay [1] (Homo sapiens, NCI-H1373, 144 h).
On to `C[C@@H]1C[C@H]2CN(C(=O)CCOC[C@@H]3CCN3c3cn[nH]c(=O)c3C(F)(F)F)CCN2c2ncc(C(F)(F)F)cc21` (single isomer, unassigned) [Compound 94B], for which the 50% inhibitory concentration (IC50) was 0.00294 µM against PARP7 enzyme and 0.0133 µM in assay [1].
On to `C[C@@H](COCCC(=O)N1CCN2c3ncc(C(F)(F)F)cc3C(=O)C[C@@H]2C1)Nc1cn[nH]c(=O)c1C(F)(F)F` (single isomer, unassigned) [Compound 76A], for which the results for the IC50 (at PARP7 enzyme; in assay [1]) were 0.00331 µM and 0.36 µM, respectively.
In the same order, the values of `COc1ccc(Cn2ncc(N3CC(C)(C)[C@H]3COCCC(=O)N3CCN4c5ncc(C(F)(F)F)cc5N(C)C(=O)[C@H]4C3)c(C(F)(F)F)c2=O)cc1` (single isomer, unassigned) [Compound 95B] are 0.00588 µM and 0.0485 µM.
In the same order, the values of `CC(=O)c1c(N[C@@H](C)COCCC(=O)N2CCN3c4ncc(C(F)(F)F)cc4OCC[C@H]3C2)cn[nH]c1=O` (single isomer, unassigned) [Compound 70A] are 0.0015 µM and 0.0287 µM.
The like results for `COC[C@@H](COCCC(=O)N1CCN2c3ncc(C(F)(F)F)cc3OC[C@@H]2C1)Nc1cn[nH]c(=O)c1C(F)(F)F` (single isomer, unassigned) [Compound 66B] were, in that order, 0.00182 µM and 0.0704 µM.
On to `C[C@@H](COCCC(=O)N1CCN2c3ncc(C(F)(F)F)cc3[C@@](C)(O)[C@H]2C1)Nc1cn[nH]c(=O)c1C(F)(F)F` [Compound 79C], for which the IC50 at PARP7 enzyme turned out to be 0.00477 µM; in assay [1] (Homo sapiens, NCI-H1373, 144 h), 0.456 µM.
As to `C[C@@H]1C[C@@H]2CN(C(=O)CCOC[C@@H]3CCN3c3cn[nH]c(=O)c3C(F)(F)F)CCN2c2ncc(C(F)(F)F)cc21` (single isomer, unassigned) [Compound 94A], the IC50 against PARP7 enzyme is 0.00237 µM; in assay [1], 0.00851 µM.
For the compound `C[C@@H](COCCC(=O)N1CCN2c3ncc(F)cc3N(C)C(=O)[C@H]2C1)Nc1cn[nH]c(=O)c1C(F)(F)F` [Compound 19B], the concentration for half-maximal inhibition (IC50) is 0.00275 µM against PARP7 enzyme and 0.221 µM in assay [1] (Homo sapiens, NCI-H1373, 144 h).
In the same order, the values of `O=C(CCOC[C@@H]1CCN1c1cn[nH]c(=O)c1C(F)(F)F)N1CCN2c3ncc(C(F)(F)F)cc3C(F)(F)C[C@@H]2C1` [Compound 93A] are 0.00282 µM and 0.0156 µM.
The like results for `CC(C)N1C(=O)[C@H]2CN(C(=O)CCOC[C@H](C)Nc3cn[nH]c(=O)c3C(F)(F)F)CCN2c2ncc(C(F)(F)F)cc21` (single isomer, unassigned) [Compound 83B] were, in that order, 0.00364 µM and 0.468 µM.
`C[C@@H](COCCC(=O)N1CCN2c3ncc(C(F)(F)F)cc3C(F)(F)C[C@@H]2C1)Nc1cn[nH]c(=O)c1C(F)(F)F` (single isomer, unassigned) [Compound 77A]: the figures for the IC50 (at PARP7 enzyme; in assay [1]) were 0.0126 µM and 0.349 µM, respectively.
As for `CC(C)N1C(=O)[C@@H]2CN(C(=O)CCOC[C@H](C)Nc3cn[nH]c(=O)c3C(F)(F)F)CCN2c2ncc(C(F)(F)F)cc21` (single isomer, unassigned) [Compound 83A], the IC50 at PARP7 enzyme is 0.00379 µM; in assay [1] (Homo sapiens, NCI-H1373, 144 h), 0.143 µM.
The like results for `O=C(CCOC[C@@H]1CCN1c1cn[nH]c(=O)c1C(F)(F)F)N1CCn2c(cc3cc(C(F)(F)F)cnc32)C1` [Compound 91] were, in that order, 0.000496 µM and 0.0113 µM.
`C[C@@H](COCCC(=O)N1CCN2c3ncc(Cl)cc3SCC[C@@H]2C1)Nc1cn[nH]c(=O)c1C(F)(F)F` [Compound 73A]: the IC50 is 0.000769 µM against PARP7 enzyme and 0.0223 µM in assay [1] (Homo sapiens, NCI-H1373, 144 h).
With `C[C@H]1C[C@@H]2CN(C(=O)CCOC[C@@H]3CCN3c3cn[nH]c(=O)c3C(F)(F)F)CCN2c2ncc(C(F)(F)F)cc21` (single isomer, unassigned) [Compound 94C], the IC50 against PARP7 enzyme is 0.0021 µM; in assay [1] it was 0.00703 µM.
Turning to `COC[C@@H](COCCC(=O)N1CCN2c3ncc(C(F)(F)F)cc3OC[C@H]2C1)Nc1cn[nH]c(=O)c1C(F)(F)F` (single isomer, unassigned) [Compound 66A], the figures for the IC50 (against PARP7 enzyme; in assay [1]) were 0.00205 µM and 0.0855 µM, respectively.
The like results for `C[C@@H](COCCC(=O)N1CCN2c3ncc(Br)cc3SCC[C@H]2C1)Nc1cn[nH]c(=O)c1C(F)(F)F` (single isomer, unassigned) [Compound 72A] were, in that order, 0.000837 µM and 0.0133 µM.
For `C[C@@H](COCCC(=O)N1CCN2c3ncc(Br)cc3N(C)C(=O)[C@@H]2C1)Nc1cn[nH]c(=O)c1C(F)(F)F` [Compound 21A], the IC50 on PARP7 enzyme came to 0.000424 µM; in assay [1] (Homo sapiens, NCI-H1373, 144 h), 0.0809 µM.
In the same order, the values of `C[C@@H](COCCC(=O)N1CCN2c3ncc(C(F)(F)F)cc3SCC[C@H]2C1)Oc1cn[nH]c(=O)c1C(F)(F)F` [Compound 86B] are 0.0205 µM and 0.246 µM.
`CN1C(=O)[C@@H]2CN(C(=O)CCOC[C@@H]3CCCN3c3cn[nH]c(=O)c3C(F)(F)F)CCN2c2ncc(C(F)(F)F)cc21` (single isomer, unassigned) [Compound 98A]: the IC50 at PARP7 enzyme amounted to 0.00125 µM; in assay [1], 0.0555 µM.
As for `CC(OCCC(=O)N1CCN2c3ncc(C(F)(F)F)cc3N(C)C(=O)C2C1)[C@@H]1CCN1c1cn[nH]c(=O)c1C(F)(F)F` (stereo partly drawn) [Compound 96], the IC50 against PARP7 enzyme was 0.00327 µM; in assay [1] it was 0.0221 µM.
As for `C[C@@H](COCCC(=O)N1CCN2c3ncc(C(F)(F)F)cc3[C@](C)(O)[C@H]2C1)Nc1cn[nH]c(=O)c1C(F)(F)F` [Compound 79D], the IC50 was determined as 0.00318 µM on PARP7 enzyme and 0.742 µM in assay [1] (Homo sapiens, NCI-H1373, 144 h).
In the same order, the values of `C[C@@H](COCCC(=O)N1CCN2c3ncc(Br)cc3N(C)C(=O)[C@H]2C1)Nc1cn[nH]c(=O)c1C(F)(F)F` [Compound 21B] are 0.000812 µM and 0.0436 µM.
For `COC[C@@H](COCCC(=O)N1CCN2c3ncc(C(F)(F)F)cc3N(C(C)C)C(=O)[C@@H]2C1)Nc1cn[nH]c(=O)c1C(F)(F)F` [Compound 25A], the IC50 was determined as 0.00372 µM on PARP7 enzyme and 0.0381 µM in assay [1] (Homo sapiens, NCI-H1373, 144 h).
As to `C[C@@H](COCCC(=O)N1CCN2c3ncc(F)cc3N(C3CC3)C(=O)[C@@H]2C1)Nc1cn[nH]c(=O)c1C(F)(F)F` [Compound 28A], the IC50 against PARP7 enzyme came to 0.00753 µM; in assay [1], 0.275 µM.
Turning to `COC[C@@H](COCCC(=O)N1CCN2c3ncc(C(F)(F)F)cc3N(C(C)C)C(=O)[C@H]2C1)Nc1cn[nH]c(=O)c1C(F)(F)F` [Compound 25B], the IC50 against PARP7 enzyme is 0.00536 µM; in assay [1] (Homo sapiens, NCI-H1373, 144 h), 0.0534 µM.
As for `CC[C@@H](COCCC(=O)N1CCN2c3ncc(C(F)(F)F)cc3N(C)C(=O)[C@H]2C1)Nc1cn[nH]c(=O)c1C(F)(F)F` [Compound 15B], the IC50 against PARP7 enzyme stood at 0.00286 µM; in assay [1] (Homo sapiens, NCI-H1373, 144 h), 0.187 µM.
On to `CN1C(=O)[C@H]2CN(C(=O)CCOC[C@@H]3CCCN3c3cn[nH]c(=O)c3C(F)(F)F)CCN2c2ncc(C(F)(F)F)cc21` (single isomer, unassigned) [Compound 98B], for which the IC50 against PARP7 enzyme turned out to be 0.00136 µM; in assay [1], 0.0371 µM.
Regarding `CC(=O)c1c(N[C@@H](C)COCCC(=O)N2CCN3c4ncc(C(F)(F)F)cc4N(C4CC4)C(=O)C3C2)cn[nH]c1=O` (stereo partly drawn) [Compound 27], the IC50 at PARP7 enzyme turned out to be 0.00698 µM; in assay [1] (Homo sapiens, NCI-H1373, 144 h) it was 0.441 µM.
In the same order, the values of `CN1C(=O)[C@@H]2CN(C(=O)CCOC[C@@H]3CCN3c3cn[nH]c(=O)c3C(F)(F)F)CCN2c2ncc(Cl)cc21` [Compound 88A] are 0.000416 µM and 0.00217 µM.
In the same order, the values of `C[C@H](COCCC(=O)N1CCN2c3ncc(Cl)cc3N(C)C(=O)[C@H]2C1)Nc1cn[nH]c(=O)c1C(F)(F)F` [Compound 82B] are 0.000892 µM and 0.0216 µM.

These data come from patent US20240336629A1, “Tricyclic Derivatives Useful As PARP7 Inhibitors” (JACOBIO PHARMACEUTICALS CO., LTD., priority 2021, published 2024).
